# How the values were obtained:
# [1] = test system: cultured normal human PBMCs; assay: Toxicity on PHA-activated normal human PBMCs, trypan blue dye exclusion; format: cell-based; settings: 0.0001 µM - 0.5 µM, 7 days
# Procedure: PBMCs from two individuals were co-cultured in the presence of varying concentrations of JO-4 for 5 days. […] Cytotoxic T lymphocytes (CTLs) were generated from one-way MLR in the absence or presence of JO-4 for 5-7 days. At the end of culture, CTLs were harvested and tested in a four hour ^51Cr-release assay against activated lymphocytes which were used as stimulators in the one-way MLR. […] Human PBMCs were cultured with 5 µg/ml LPS in the absence or presence of 1.0 µg/ml JO-4 in 24-well microtiter plates for 24 hours. At the end of culture, supernatants were harvested and tested by EIA for the presence of IL-1β, TNF-α, and IL-6. […] PBMCs from two individuals were co-cultured in the absence or presence of varying concentrations of JO-4A for 5 days. […] Antiviral effects of JO-4 on HSV-2 were determined as described in Figure 16A. • Figure 17A and 17B show the results of toxicity testing of JO-4 and JO-4A on normal, uninfected African green monkey kidney cells (CV-1), respectively. […] Cytotoxicity was determined by colorimetric (MTT) assay.
# Peripheral Blood Mononuclear cells (PBMCs): Heparinized venous blood was obtained from healthy adult volunteers and PBMCs were separated by centrifugation over Ficoll-Hypaque (Pharmacia Biotech, Piscataway, NJ). […] Cell viability was assessed by trypan blue dye exclusion test and the cell number was adjusted to required concentration.
# B16-F1 melanoma tumor = B16-F1 melanoma tumor growth and survival in mice; format: in vivo, C57BL/6 (B6) mice; settings: for survival of mice: day 28
# Procedure: The following materials and methods were employed in the non-limiting Examples set out below. Tumor cells: Human cervical epitheloid carcinoma (HeLa), human renal clear cell carcinoma (CAKI-1), human malignant melanoma (RPMI-7951) and mouse malignant melanoma (B16-F1) were procured from ATCC (Rockville, MD) and maintained in vitro with MEM medium (Mediatech, Inc., Herndon, VA) supplemented with 10% heat-inactivated fetal bovine serum (American Qualex, San Clemente, CA), 10mM glutamine, 100 U/ml penicillin, and 100 µg/ml streptomycin (Sigma Chemicals, Saint Louis, MO) (complete medium). Normal cells: Normal human cervical ectoepithelial cells (CrEc-Ec), normal human mammary epithelial cells (HMEC) and normal human umbilical vein endothelial cells (HUVEC) were obtained from Clonetics (San Diego, CA) and cultured with the respective recommended tissue culture medium obtained from Clonetics. Peripheral Blood Mononuclear cells (PBMC): Heparinized venous blood was obtained from healthy adult volunteers and PBMC were separated by centrifugation over Ficoll-Hypaque (Pharmacia Biotech, Piscataway, NJ). The cells were washed three times with HBSS (Hanks Balanced Salt Solution) and finally resuspended in complete medium. Cell viability was assessed by trypan blue dye exclusion test and the cell number was adjusted to required concentration. Colorimetric MTT assay: Cytotoxic effects of the hypoestoxide compounds of formulas I and II (JO-4A) were determined in vitro by a colorimetric assay (Mosmann, T., J. Immunol. Methods, 65: 55-63, 1983). Briefly, 1000 cells per well (100 µl) in a 96-well flat-bottom plate were cultured either with the culture medium alone or with various concentrations of drug at 37°C, in a 5% CO2-95% air humidified incubator for 72 hours. At the end of the culture, 10 µl of 5 mg/ml sterile solution of 3-(4,5-Dimethylthiazol-2yl)-2,5-diphenyltetrazolium bromide (MTT) (Sigma Chemicals, Saint Louis, MO) in PBS was added per well and the incubation was resumed for an additional 4 hours. Acid-isopropanol (100 µl of 0.04 N HCl in isopropanol) was added to all wells and kept at room temperature for 30 minutes. Mixing with a multichannel pipetter dissolved the dark blue crystals and the absorbance was measured at 545-650 nm using an ELISA plate reader. Mice: Eight-week-old female C57BL/6 (B6) mice were purchased from Charles River Laboratories (Wilmington, MA. The measurement of tumor volume in mice: B16-F1 melanoma cells growing exponentially in vitro were harvested by 15 minutes incubation with 0.25% trypsin-EDTA solution (Irvin Scientific, Irvine, CA). The mice were given subcutaneous (s.c.) injections of 50,000 viable cells on the right side (Fidler, I. J. Cancer Research 35:218-224, 1975). Four days after injection, the mice in the experimental group were gavaged orally with various concentrations of JO-4A in 0.2 ml of water and the control group received water alone. The tumors were measured with a microcaliper, and the tumor volume was calculated by the formula: Length x width x height x 0.5236 (Jungwirth, A. et al., Proc. Natl. Acad. Sci. USA, 94:5810-5813, 1997). Statistical analysis: Students' t-test was used to calculate the level of significance.
smiles,measurement,setting,value
C=C1C(=O)CC2CC3OC3(C)CCC3OC3(C)CC(O)C1C2(C)C (stereo not shown) [JO-4A],toxic effect on cultured human PBMC,[1],no toxic effect
same,survival of mice,B16-F1 melanoma tumor; 0.1 mg/Kg orally daily day 4 to day 20,17%
same,survival of mice,B16-F1 melanoma tumor; 0.5 mg/Kg orally daily day 4 to day 20,60%
same,survival of mice,B16-F1 melanoma tumor; 1 mg/Kg orally daily day 4 to day 20,67%
same,survival of mice,B16-F1 melanoma tumor; 2 mg/Kg orally daily day 4 to day 20,84%
same,survival compared with non-treated group,"B16-F1 melanoma tumor; 2 mg/Kg orally, treatment stopped on day 20",survived longer
same,tumor volume,"B16-F1 melanoma tumor; oral, daily from day 4 post tumor implantation, all four concentrations tested, measured day 12",significantly reduced
